Measured values: ChEMBL document CHEMBL3616377, “2-(3'-Indolyl)-N-arylthiazole-4-carboxamides: Synthesis and evaluation of antibacterial and anticancer activities” (Bioorg Med Chem Lett, 2015)
In brackets after ≈: the same amount, converted by molar mass. Activity calls are given as the source filed them. The rule behind the calls is not given here.

Legend:
MCF7 = test: Cytotoxicity against human MCF7 cells by MTT assay; assay type: functional, cell-based
SK-N-MC = test: Cytotoxicity against human SK-N-MC cells by MTT assay; assay type: functional, cell-based
HepG2 = test: Cytotoxicity against human HepG2 cells by MTT assay; assay type: functional, cell-based
HeLa [1] = test: Induction of apoptosis in human HeLa cells assessed as formation of apoptotic nuclei formation at 10 uM after 24 hrs using propidium iodide staining by fluorescence microscopy analysis; assay type: functional, cell-based
LNCaP [2] = test: Cytotoxicity against human LNCAP cells after 48 hrs by MTT assay in absence of 10% FBS; assay type: functional, cell-based
MDA-MB-231 [3] = test: Cytotoxicity against human MDA-MB-231 cells after 48 hrs by MTT assay in presence of 10% FBS; assay type: functional, cell-based; conditions: MDA-MB-231, 48 h
MDA-MB-231 [4] = test: Cytotoxicity against human MDA-MB-231 cells after 48 hrs by MTT assay in absence of 10% FBS; assay type: functional, cell-based; conditions: MDA-MB-231, 48 h
HEK-293T [5] = test: Cytotoxicity against human HEK293T cells after 48 hrs by MTT assay in absence of 10% FBS; assay type: cell-based
[6] = Cytotoxicity against human castration-resistant C4-2 cells after 48 hrs by MTT assay in presence of 10% FBS; assay type: functional, cell-based; conditions: LNCaP C4-2, 48 h
Pseudomonas putida [7] = test: Antibacterial activity against Pseudomonas putida MTCC 102 after 18 to 24 hrs by agar well diffusion method; assay type: functional
Bacillus subtilis [8] = test: Antibacterial activity against Bacillus subtilis MTCC 121 after 18 to 24 hrs by agar well diffusion method; assay type: functional
[9] = Cytotoxicity against human castration-resistant C4-2 cells after 48 hrs by MTT assay in absence of 10% FBS; assay type: functional, cell-based; conditions: LNCaP C4-2, 48 h
PC-3 [10] = test: Cytotoxicity against human PC3 cells after 48 hrs by MTT assay in absence of 10% FBS; assay type: functional, cell-based; conditions: PC-3, 48 h
Staphylococcus aureus [11] = test: Antibacterial activity against Staphylococcus aureus MTCC 96 after 18 to 24 hrs by broth microdilution method; assay type: functional
HeLa [12] = test: Cytotoxicity against human HeLa cells after 48 hrs by MTT assay in absence of 10% FBS; assay type: functional, cell-based
Escherichia coli [13] = test: Antibacterial activity against Escherichia coli MTCC 1652 after 18 to 24 hrs by agar well diffusion method; assay type: functional
Escherichia coli [14] = test: Bactericidal activity against Escherichia coli MTCC 1652 assessed as reduction of number of bacterial cells at 4 times MIC after 2 to 3 hrs; assay type: functional, organism-based
Pseudomonas putida [15] = test: Antibacterial activity against Pseudomonas putida MTCC 102 after 18 to 24 hrs by broth microdilution method; assay type: functional
Bacillus subtilis [16] = test: Antibacterial activity against Bacillus subtilis MTCC 121 after 18 to 24 hrs by broth microdilution method; assay type: functional
Staphylococcus aureus [17] = test: Antibacterial activity against Staphylococcus aureus MTCC 96 after 18 to 24 hrs by agar well diffusion method; assay type: functional
LNCaP [18] = test: Cytotoxicity against human LNCAP cells after 48 hrs by MTT assay in presence of 10% FBS; assay type: functional, cell-based
Pseudomonas putida [19] = test: Bactericidal activity against Pseudomonas putida MTCC 102 assessed as reduction of number of bacterial cells at 4 times MIC after 2 to 3 hrs; assay type: functional, organism-based
Escherichia coli [20] = test: Bactericidal activity against Escherichia coli MTCC 1652 assessed as reduction of number of bacterial cells at 4 times MIC after 1 to 6 hrs; assay type: functional, organism-based
Pseudomonas putida [21] = test: Bactericidal activity against Pseudomonas putida MTCC 102 assessed as reduction of number of bacterial cells at 4 times MIC after 1 to 6 hrs; assay type: functional, organism-based
Escherichia coli [22] = test: Antibacterial activity against Escherichia coli MTCC 1652 after 18 to 24 hrs by broth microdilution method; assay type: functional
HeLa [23] = test: Cytotoxicity against human HeLa cells after 48 hrs by MTT assay in presence of 10% FBS; assay type: functional, cell-based
HEK-293T [24] = test: Cytotoxicity against human HEK293T cells after 48 hrs by MTT assay in presence of 10% FBS; assay type: cell-based
PC-3 [25] = test: Cytotoxicity against human PC3 cells after 48 hrs by MTT assay in presence of 10% FBS; assay type: functional, cell-based; conditions: PC-3, 48 h
Staphylococcus aureus [26] = test: Antibacterial activity against methicillin-resistant Staphylococcus aureus; assay type: functional

Cc1ccc(-c2nc(C(=O)Nc3ccccc3)cs2)cc1 gave an IC50 (MCF7) of 10 µM, an IC50 (SK-N-MC) of 10 µM and an IC50 (HepG2) of 10 µM.
In the case of COc1ccc2[nH]cc(-c3nc(C(=O)Nc4cc(OC)c(OC)c(OC)c4)cs3)c2c1, the Activity (HeLa [1]) is reported as “Active”, the IC50 (LNCaP [2]) is reported as over 100 µM and the IC50 (MDA-MB-231 [3]) is reported as over 100 µM. It also gave an IC50 (MDA-MB-231 [4]) of over 100 µM, an IC50 (HEK-293T [5]) of 8.6 µM and an IC50 [6] of over 100 µM. For the same compound, the “inhibition zone (IZ)” value (Pseudomonas putida [7]) was 18 mm, the “inhibition zone (IZ)” value (Bacillus subtilis [8]) was 14 mm and the IC50 [9] was over 100 µM. For the same compound, the IC50 (PC-3 [10]) was 94.3 µM, the MIC (Staphylococcus aureus [11]) was 100 µg/mL (≈ 228 µM) and the IC50 (HeLa [12]) was 29.6 µM. The “inhibition zone (IZ)” value (Escherichia coli [13]) was 18 mm, the Activity (Escherichia coli [14]) was “Active” and the MIC (Pseudomonas putida [15]) was 12.5 µg/mL (≈ 28.4 µM). The MIC (Bacillus subtilis [16]) was 50 µg/mL (≈ 114 µM), the “inhibition zone (IZ)” value (Staphylococcus aureus [17]) was 13 mm and the IC50 (LNCaP [18]) was 84.8 µM. The Activity (Pseudomonas putida [19]) was “Active”, the Activity (Escherichia coli [20]) was “Active” and the Activity (Pseudomonas putida [21]) was “Active”. The MIC (Escherichia coli [22]) was 12.5 µg/mL (≈ 28.4 µM), the IC50 (HeLa [23]) was 9.98 µM and the IC50 (HEK-293T [24]) was 8.74 µM. It also gave an IC50 (PC-3 [25]) of over 100 µM.
For Clc1ccc2ccc(-c3c[nH]c4ccc(Br)cc34)nc2c1, the MIC (Staphylococcus aureus [26]) was under 1 µg/mL.
